Data reported in the NIST ThermoML archive (doi:10.1021/acs.jced.7b01112).
± gives the expanded uncertainty stated by the source.

Tests used:
[1] = Molar enthalpy of transition or fusion; details: Crystal; DSC
[2] = Crystal; DTA

Compound: O=C(O)c1ccc(C(=O)O)o1 [2,5-furandicarboxylic acid]
- Molar enthalpy of transition or fusion [1]: 13.2 ± 0.837 kcal/mol
- Normal melting temperature [2]: 341.30 ± 0.7 °C
